Experimental data from patent publication US6921770B2 (priority 2000, dated 2005).
Where two headings read alike, the source gives them in different places.

System: rice blast fungi
Type: in vivo, Pyricularia grisea

| Compound | Inhibiting Ratio (%) (at 250 ppm) | Inhibiting Ratio (%) (at 250 ppm) (hydrobromide) |
| --- | --- | --- |
| Br.Cc1ccc(NC(=O)Cc2csc(=Nc3cc(Cl)cc(Cl)c3)n2C)cc1 [Compound 4, 2-(3,5-dichlorophenylimino)-3-methyl-4-[N-(4-methylphenyl)carbamoylmethyl]-1,3-thiazol-4-ine hydrobromide] | 83 | – |
| Br.Cc1ccc(Cl)cc1N=c1scc(CC(=O)Nc2ccccc2)n1C [Compound 24, 2-(5-chloro-2-methylphenylimino)-3-methyl-4-(N-phenylcarbamoymethyl)-1,3-thiazol-4-ine hydrobromide] | 97 | – |
| COc1ccc(NC(=O)Cc2csc(=Nc3ccc(Cl)cc3)n2C)cc1.Cl [Compound 104, 2-(4-chlorophenylimino)-3-methyl-4-[N-(4-methoxyphenyl)carbamoylmethyl]-1,3-thiazol-4-ine hydrochloride] | 93 | – |
| Br.Cc1ccc(NC(=O)Cc2csc(=Nc3ccc([N+](=O)[O-])cc3)n2C)cc1 [Compound 16, 2-(4-nitrophenylimino)-3-methyl-4-[N-(4-methylphenyl)carbamoylmethyl]-1,3-thiazol-4-ine hydrobromide] | 100 | – |
| Br.CC(C)=CCOc1cc(N=c2scc(CC(=O)Nc3ccccc3)n2C)c(F)cc1Cl [Compound 70, 2-(4-chloro-2-fluoro-5-(3,3,-dimethylallyloxy)phenylimino)-3-methyl-4-(N-phenylcarbamoylmethyl)-1,3-thiazol-4-ine hydrobromide] | 96 | – |
| Br.Cn1c(CC(=O)Nc2ccccc2)csc1=Nc1ccc(OC(F)(F)F)cc1 [Compound 39, 2-(4-trifluoromethoxyphenylimino)-3-methyl-4-(N-phenylcarbamoylmethyl)-1,3-thiazol-4-ine hydrobromide] | 99 | – |
| Cl.Cn1c(CC(=O)Nc2ccc(Cl)cc2)csc1=Nc1ccccc1F [Compound 160, 2-(2-fluorophenylimino)-3-methyl-4-[N-(4-chlorophenyl)carbamoylmethyl]-1,3-thiazol-4-ine hydrochloride] | 88 | – |
| Br.Cn1c(CC(=O)Nc2ccccc2)csc1=Nc1ccc(Cl)cc1F [Compound 42, 2-(4-chloro-2-fluorophenylimino)-3-methyl-4-(N-phenylcarbamoylmethyl)-1,3-thiazol-4-ine hydrobromide] | 100 | – |
| Cc1ccc(N=c2scc(CC(=O)Nc3ccc(Br)cc3)n2C)c(C)c1.Cl [Compound 135, 2-(2,4-dimethylphenylimino)-3-methyl-4-[N-(4-bromophenyl)carbamoylmethyl]-1,3-thiazol-4-ine hydrochloride] | 98 | – |
| Cn1c(CC(=O)Nc2ccccc2)csc1=Nc1ccc(F)cc1F [Compound 331, 2-(2,4-difluorophenylimino)-3-methyl-4-[N-phenylcarbamoylmethyl]-1,3-thiazol-4-ine] | 96 | – |
| Br.Cc1ccc(NC(=O)Cc2csc(=Nc3cccc([N+](=O)[O-])c3)n2C)cc1 [Compound 15, 2-(3-nitrophenylimino)-3-methyl-4-[N-(4-methylphenyl)carbamoylmethyl]-1,3-thiazol-4-ine hydrobromide] | 91 | – |
| Cl.Cn1c(CC(=O)Nc2ccc(Cl)cc2)csc1=Nc1cccc(Br)c1 [Compound 156, 2-(3-bromophenylimino)-3-methyl-4-[N-(4-chlorophenyl)carbamoylmethyl]-1,3-thiazol-4-ine hydrochloride] | 96 | – |
| Br.CC(C)OC(=O)c1cc(N=c2scc(CC(=O)Nc3ccccc3)n2C)ccc1Cl [Compound 23, 2-(4-chloro-3-isopropyloxycarbonylphenylimino)-3-methyl-4-(N-phenylcarbamoylmethyl)-1,3-thiazol-4-ine hydrobromide] | 96 | – |
| CC(C)Oc1ccc(N=c2scc(CC(=O)Nc3ccccc3F)n2C)cc1.Cl [Compound 105, 2-(4-isopropoxyphenylimino)-3-methyl-4-[N-(2-fluorophenyl)carbamoylmethyl]-1,3-thiazol-4-ine hydrochloride] | 90 | – |
| Cc1ccc(NC(=O)Cc2csc(=Nc3ccc(F)c(Cl)c3)n2C)cc1Cl.Cl [Compound 238, 2-(3-chloro-4-fluorophenylimino)-3-methyl-4-[N-(3-chloro-4-methylphenyl)carbamoylmethyl]-1,3-thiazol-4-ine hydrochloride] | 93 | – |
| Cn1c(CC(=O)Nc2ccc(Cl)cc2)csc1=Nc1ccc(C#N)cc1 [Compound 329, 2-(4-cyanophenylimino)-3-methyl-4-[N-(4-chlorophenyl)carbamoylmethyl]-1,3-thiazol-4-ine] | 100 | – |
| Cl.Cn1c(CC(=O)Nc2ccc(Cl)cc2)csc1=Nc1ccc(F)cc1F [Compound 159, 2-(2,4-difluorophenylimino)-3-methyl-4-[N-(4-chlorophenyl)carbamoylmethyl]-1,3thiazol-4-ine hydrochloride] | 92 | – |

| Compound | Inhibiting Ratio (%) (at 250 ppm) | Inhibiting Ratio (%) (at 250 ppm) (hydrobromide) |
| --- | --- | --- |
| Br.Cn1c(CC(=O)Nc2cccc(Cl)c2)csc1=Nc1ccc(Cl)cc1F [Compound 66, 2-(4-chloro-2-fluorophenylimino)-3-methyl-4-[N-(3-chlorophenyl)carbamoylmethyl]-1,3-thiazol-4-ine hydrobromide] | 96 | – |
| Br.COc1ccc(N=c2scc(CC(=O)Nc3ccc(OC)cc3)n2C)cc1 [Compound 307, 2-(4-methoxyphenylimino)-3-methyl-4-[N-(4-methoxyphenyl)carbamoylmethyl]-1,3-thiazol-4-ine hydrobromide] | 100 | – |
| Cc1ccc(NC(=O)Cc2csc(=Nc3ccc(Cl)cc3)n2C)cc1Cl.Cl [Compound 233, 2-(4-chlorophenylimino)-3-methyl-4-[N-(3-chloro-4-methylphenyl)carbamoylmethyl]-4-thiazoline hydrochloride] | 97 | – |
| Br.Cn1c(CC(=O)Nc2ccccc2)csc1=Nc1ccc(Oc2ccccc2)cc1 [Compound 3, 2-(4-phenoxyphenylimino)-3-methyl-4-(N-phenylcarbamoylmethyl)-1,3-thiazol-4-ine hydrobromide] | 95 | – |
| Br.Cc1ccc(NC(=O)Cc2csc(=Nc3ccc(Cl)c(C(F)(F)F)c3)n2C)cc1 [Compound 53, 2-(4-chloro-3-trifluoromethylphenylimino)-3-methyl-4-[N-(4-methylphenyl)carbamoylmethyl]-1,3-thiazol-4-ine hydrobromide] | 99 | – |
| CC(C)Oc1cc(N=c2scc(CC(=O)Nc3ccc(Br)cc3)n2C)c(F)cc1Cl.Cl [Compound 185, 2-(4-chloro-5-isopropoxy-2-fluorophenylimino)-3-methyl-4-[N-(4-bromophenyl)carbamoylmethyl]-1,3-thiazol-4-ine hydrochloride] | 97 | – |
| COc1ccc(NC(=O)Cc2csc(=Nc3cc(C)ccc3OC)n2C)cc1.Cl [Compound 198, 2-(2-methoxy-5-methylphenylimino)-3-methyl-4-[N-(4-methoxyphenyl)carbamoylmethyl]-1,3-thiazol-4-ine hydrochloride] | 95 | – |
| Br.Cc1ccccc1N=c1scc(CC(=O)Nc2ccc(Cl)cc2)n1C [Compound 310, 2-(2-methylphenylimino)-3-methyl-4-[N-(4-chlorophenyl)carbamoylmethyl]1,3-thiazol-4-ine hydrobromide] | 100 | – |
| Br.COc1ccc(NC(=O)Cc2csc(=Nc3ccc(F)cc3)n2C)cc1 [Compound 315, 2-(4-fluorophenylimino)-3-methyl-4-[N-(4-methoxyphenyl)carbamoylmethyl]-1,3-thiazol-4-ine hydrobromide] | 97 | – |
| CCCCc1ccc(N=c2scc(CC(=O)Nc3ccc(OC)cc3)n2C)cc1 [Compound 334, 2-[4-(n-butyl)phenylimino]-3-methyl-4-[N-(4-methoxyphenyl)carbamoylmethyl]-1,3-thiazol-4-ine] | 96 | – |
| COc1ccc(NC(=O)Cc2csc(=Nc3ccc(C)cc3C)n2C)cc1.Cl [Compound 196, 2-(2,4-dimethylphenylimino)-3-methyl-4-[N-(4-methoxyphenyl)carbamoylmethyl]-1,3-thiazol-4-ine hydrochloride] | 92 | – |
| Br.Cc1cc(Cl)ccc1N=c1scc(CC(=O)Nc2cccc(Cl)c2)n1C [Compound 63, 2-(4-chloro-2-methylphenylimino)-3-methyl-4-[N-(3-chlorophenyl)carbamoylmethyl]-1,3-thiazol-4-ine hydrobromide] | – | 96 |
| Br.COc1ccc(NC(=O)Cc2csc(=Nc3ccccc3C)n2C)cc1 [Compound 312, 2-(2-methylphenylimino)-3-methyl-4-[N-(4-methoxyphenyl)carbamoylmethyl]-1,3-thiazol-4-ine hydrobromide] | 25 | – |
| COc1ccc(NC(=O)Cc2csc(=Nc3cc(Cl)cc(Cl)c3)n2C)cc1.Cl [Compound 102, 2-(3,5-dichlorophenylimino)-3-methyl-4-[N-(4-methoxyphenyl)carbamoylmethyl]-1,3-thiazol-4-ine hydrochloride] | 93 | – |
| Cl.Cn1c(CC(=O)Nc2ccc(Br)cc2)csc1=Nc1ccc(Oc2ccccc2)cc1 [Compound 141, 2-(4-phenoxyphenylimino)-3-methyl-4-[N-(4-bromophenyl)carbamoylmethyl]-1,3-thiazol-4-ine hydrochloride] | 99 | – |
| Br.Cn1c(CC(=O)Nc2ccccc2)csc1=Nc1ccc(C(F)(F)F)cc1 [Compound 2, 2-(4-trifluoromethylphenylimino)-3-methyl-4-(N-phenylcarbamoylmethyl)-1,3-thiazol-4-ine hydrobromide] | 86 | – |
